Test results: patent US20250092035A1, “ISOCITRATE DEHYDROGENASE 1 INHIBITORS AND METHODS OF USE THEREOF” (THE WISTAR INSTITUTE OF ANATOMY AND BIOLOGY, priority 2022, published 2025)
Read-outs that look alike come from different tables or passages of the source.

Columns and labels:
IDH1 [1] = molecular target: T1, IDH1 (Homo sapiens, UniProt O75874); assay: IC50 in two trials and mean (Example 1, assay not described); type: biochemical
[2] = Microsomal stability (mouse liver microsome assay)
IDH1 [3] = molecular target: T1, IDH1; assay: IC50 dose-response curve fits (Example 1, assay not described); type: biochemical; conditions: for IC50: curve fit; for Bottom / Slope / Top: curve-fit parameter
IDH1 [4] = molecular target: T1, IDH1; assay: Two-step binding kinetics (Example 1, assay not described)
[5] = reported (ref. 52); cited from earlier work
[6] = Mouse pharmacokinetics study; conditions: CD-1, mouse, plasma, ip, 10 mg/kg
MiaPaCa2 xenograft = test system: MiaPaCa2 xenograft
Method: In vivo studies. […] Mice were maintained under pathogen-free conditions in the animal facility. No additional food or nutrient-contained bedding provided to the animals during these studies. […] Mice with subcutaneous PDX were purchased from The Jackson Laboratory (#TM01212). […] Mice were imaged weekly to monitor tumor progression and tumor volume was assessed for each mouse and plotted longitudinally. […] All experiments with KPC mice were performed under a UK Home Office license and approved by the University of Glasgow Animal Welfare and Ethical Review Board. […] Tamoxifen dissolved in corn oil at 20 mg/ml, and animals received tamoxifen (75 mg/kg, IP administration, once daily) for six consecutive days. For flank xenograft experiments, 1×10^6 cells were suspended in 200 μL of a PBS:matrigel solution (1:1) and injected subcutaneously into the right flank of mice. For orthotopic experiments, 4×10^4 Luciferase-expressing KPC K8484 cells were suspended in 50 μL of a PBS:matrigel solution (1:1) and injected into the pancreas of C57BL/6 mice at 12 weeks of age. Equal number of male and female mice were used. Mice were anesthetized using isoflurane gas. After ensuring appropriate depth of anesthesia, a 0.5 cm left subcostal incision was made to gain access into the peritoneal cavity. The tail of the pancreas was externalized and the mixture was carefully injected into the pancreas. […]

[7] = Trial 1, read-out: IC50, Trial 1
[8] = Trial 2, read-out: IC50, Trial 2
[9] = mean of the trials, read-out: Mean IC50
[10] = 1st step, read-out: KiAPP (affinity for 1st step)
[11] = 2nd step, read-out: KiAPP* (affinity for 2nd step)

T1 sequence (O75874 whole entry): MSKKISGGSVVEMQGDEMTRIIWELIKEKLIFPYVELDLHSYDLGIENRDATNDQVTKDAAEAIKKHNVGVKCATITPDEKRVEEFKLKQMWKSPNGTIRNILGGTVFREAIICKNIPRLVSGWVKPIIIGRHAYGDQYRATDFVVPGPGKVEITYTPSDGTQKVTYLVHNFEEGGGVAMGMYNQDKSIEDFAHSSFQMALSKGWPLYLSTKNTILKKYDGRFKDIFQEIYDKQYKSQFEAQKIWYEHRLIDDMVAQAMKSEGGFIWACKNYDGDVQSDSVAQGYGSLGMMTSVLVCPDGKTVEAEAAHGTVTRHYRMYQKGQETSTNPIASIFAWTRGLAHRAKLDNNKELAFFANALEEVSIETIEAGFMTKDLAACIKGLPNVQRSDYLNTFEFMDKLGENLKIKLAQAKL

| SMILES | IC50 (IDH1 [1]; [7]) [nM] | IC50 (IDH1 [1]; [8]) [nM] | IC50 (IDH1 [1]; [9]) [nM] | also measured |
| --- | --- | --- | --- | --- |
| CC(O)c1cccc(NC(=O)c2nn(Cc3ccc(F)cc3)c3c2CN(C(=O)c2cccn2C)CC3(C)C)c1 (stereo not shown) [IAP-1-39] | 45 | 47 | 46 | – |
| CC1(C)CN(C(=O)c2cccs2)Cc2c(C(=O)Nc3cccc(C(N)=O)c3)nn(Cc3ccc(F)cc3)c21 [FSM-2-96] | 265 | 253 | 259 | – |
| CC1(C)CN(C(=O)c2cccs2)Cc2c(C(=O)Nc3cccc(C(=O)NC4CCCC4)c3)nn(Cc3ccc(F)cc3)c21 [IAP-1-35] | 69 | 70 | 69 | – |
| CC1(C)CN(C(=O)c2ccc[nH]2)Cc2c(C(=O)Nc3cccc(C(=O)O)c3)nn(Cc3ccc(F)cc3)c21 [FSM-2-97] | > 10000 | 7830 | 7830 | – |
| CC1(C)CN(C(=O)c2ccc[nH]2)Cc2c(C(=O)Nc3cccc(C(=O)NC4CC4)c3)nn(Cc3ccc(F)cc3)c21 [IAP-1-23] | 1030 | 961 | 996 | – |
| CC(O)c1cccc(NC(=O)c2nn(Cc3ccc(C(F)(F)F)cc3)c3c2CN(C(=O)c2cn[nH]c2)CC3(C)C)c1 (stereo not shown) [FSM-2-302] | – | – | – | half-life at 0.5 μM ([2]; liver microsomes): 56.6 min; IC50 (IDH1 [3]): 36 nM; Bottom (IDH1 [3]): 4.0; Slope (IDH1 [3]): 1.0; Top (IDH1 [3]): 97.9 |
| CC1(C)CN(C(=O)c2cccs2)Cc2c(C(=O)Nc3cccc(C(=O)O)c3)nn(Cc3ccc(F)cc3)c21 [FSM-2-98] | 6260 | 5070 | 5630 | – |
| C=CC(=O)Nc1cccc(NC(=O)c2nn(Cc3ccc(C(F)(F)F)cc3)c3c2CN(C(=O)c2cn[nH]c2)CC3(C)C)c1 [FSM-05-157] | – | – | – | k5 (on rate for 2nd step, min−1) (IDH1 [4]): 0.306 min⁻¹; k6 (off rate for 2nd step) (IDH1 [4]): 0.001 min⁻¹; Ki (IDH1 [4]; [10]): 23.6 µM; Ki (IDH1 [4]; [11]): 0.0648 µM |
| Cc1ncsc1-c1ccc(CNC(=O)[C@@H]2C[C@@H](O)CN2C(=O)C(NC(=O)CCCCCCOc2cccc(NC(=O)c3nn(Cc4ccc(F)cc4)c4c3CN(C(=O)c3ccc[nH]3)CC4(C)C)c2)C(C)(C)C)cc1 (stereo partly shown) [FSM-3-17] | – | – | – | half-life at 0.5 μM ([2]; liver microsomes): 19.5 min |
| CC1(C)CN(C(=O)c2cccs2)Cc2c(C(=O)Nc3cccc(C(=O)NC4CCCCC4)c3)nn(Cc3ccc(F)cc3)c21 [IAP-1-37] | 19 | 18 | 19 | – |
| CC1(C)CN(C(=O)c2ccc[nH]2)Cc2c(C(=O)Nc3ncco3)nn(Cc3ccc(F)cc3)c21 [FSM-2-113] | 1270 | 1050 | 1160 | – |
| COc1cccc(NC(=O)c2nn(Cc3ccc(C(F)(F)F)cc3)c3c2CN(C(=O)c2ccc[nH]2)CC3(C)C)c1 [FSM-2-277] | – | – | – | IC50 (IDH1 [3]): 2.9 nM; Bottom (IDH1 [3]): 11.8; Slope (IDH1 [3]): 1.0; Top (IDH1 [3]): 99.3 |
| COc1ccc(NC(=O)c2nn(Cc3ccc(C(F)(F)F)cc3)c3c2CN(C(=O)c2ccc[nH]2)CC3(C)C)cc1 [FSM-2-275] | – | – | – | IC50 (IDH1 [3]): 3.3 nM; Bottom (IDH1 [3]): 3.6; Slope (IDH1 [3]): 1.3; Top (IDH1 [3]): 99.1 |
| CC1(C)CN(C(=O)c2ccc[nH]2)Cc2c(C(=O)Nc3cccc(C(=O)NC4CCCC4)c3)nn(Cc3ccc(F)cc3)c21 [IAP-1-34] | 88 | 95 | 91 | – |
| CC1(C)CN(C(=O)c2ccc[nH]2)Cc2c(C(=O)Nc3cccc(C(N)=O)c3)nn(Cc3ccc(F)cc3)c21 [FSM-2-95] | 309 | 294 | 301 | – |
| CC1(C)CN(C(=O)c2cccs2)Cc2c(C(=O)Nc3nccs3)nn(Cc3ccc(F)cc3)c21 [FSM-2-116] | > 10000 | 8110 | 8110 | – |
| CC1(C)CN(C(=O)c2cccs2)Cc2c(C(=O)Nc3ncco3)nn(Cc3ccc(F)cc3)c21 [FSM-2-114] | 1380 | 1230 | 1300 | – |
| COc1cccc(NC(=O)c2nn(Cc3ccc(C(F)(F)F)cc3)c3c2CN(C(=O)c2cccs2)CC3(C)C)c1 [FSM-2-278] | – | – | – | IC50 (IDH1 [3]): 2.9 nM; Bottom (IDH1 [3]): 4.6; Slope (IDH1 [3]): 1.0; Top (IDH1 [3]): 98.0 |
| COc1ccc(NC(=O)c2nn(Cc3ccc(C(F)(F)F)cc3)c3c2CN(C(=O)c2cccs2)CC3(C)C)cc1 [FSM-2-276] | – | – | – | IC50 (IDH1 [3]): 2.8 nM; Bottom (IDH1 [3]): 15.8; Slope (IDH1 [3]): 1.4; Top (IDH1 [3]): 98.9 |
| CC1(C)CN(C(=O)c2cn[nH]c2)Cc2c(C(=O)Nc3cccc(F)c3)nn(Cc3ccc(C(F)(F)F)cc3)c21 [FSM-3-02] | – | – | – | IC50 (IDH1 [3]): 113 nM; Bottom (IDH1 [3]): −0.9; Slope (IDH1 [3]): 1.0; Top (IDH1 [3]): 95.0 |
| C[C@@H]1CN(C(=O)c2ccc[nH]2)Cc2c(C(=O)Nc3cccc([C@@H](C)O)c3)nn(Cc3ccc(F)cc3)c21 [FSM-206, reference compound] | – | – | – | bioavailability [5]: poor bioavailability; Bottom (IDH1 [3]): −0.8; Slope (IDH1 [3]): 1.0; Top (IDH1 [3]): 98.0 |
| CC1(C)CN(C(=O)c2ccc[nH]2)Cc2c(C(=O)Nc3nccs3)nn(Cc3ccc(F)cc3)c21 [FSM-2-115] | > 10000 | > 10000 | > 10000 | – |
| Cc1c[nH]c(C(=O)N2Cc3c(C(=O)Nc4cccc(C(C)O)c4)nn(Cc4ccc(F)cc4)c3C(C)(C)C2)c1 (stereo not shown) [IAP-1-40] | 520 | 475 | 497 | – |
| Cn1cccc1C(=O)N1Cc2c(C(=O)Nc3ccccc3)nn(Cc3ccc(F)cc3)c2C(C)(C)C1 [VV-1-19] | 73 | 73 | 73 | – |
| CC1(C)CN(C(=O)c2cn[nH]c2)Cc2c(C(=O)Nc3cccc(NC(=O)CCCl)c3)nn(Cc3ccc(C(F)(F)F)cc3)c21 [FSM-05-141] | – | – | – | k5 (on rate for 2nd step, min−1) (IDH1 [4]): 0.257 min⁻¹; k6 (off rate for 2nd step) (IDH1 [4]): 0.002 min⁻¹; Ki (IDH1 [4]; [10]): 12.5 µM; Ki (IDH1 [4]; [11]): 0.0822 µM |
| Cc1ncc2n1-c1ccc(Cl)cc1C(c1ccccc1F)=NC2 [Midazolam, reference compound] | – | – | – | half-life at 0.5 μM ([2]; microsomes): 1.76 min |
| CC1(C)CN(C(=O)c2cn[nH]c2)Cc2c(C(=O)Nc3ccc(F)cc3)nn(Cc3ccc(C(F)(F)F)cc3)c21 [FSM-3-002, N-(4-Fluorophenyl)-7,7-dimethyl-5-(1H-pyrazole-4-carbonyl)-1-(4-(trifluoromethyl)benzyl)-4,5,6,7-tetrahydro-1H-pyrazolo[4,3-c]pyridine-3-carboxamide] | – | – | – | Cmax [6]: 2320 ng/mL; half-life at 0.5 μM ([2]; liver microsomes): 147 min; xenograft growth (MiaPaCa2 xenograft; 75 mg/kg IP once daily): marked reduction in MiaPaCa2 xenograft growth; tolerability (MiaPaCa2 xenograft; mouse, in vivo, ip, 75 mg/kg): well-tolerated |
